{
  "source": "ChEMBL document CHEMBL5260845",
  "about": "“Flavone-based arylamides as potential anticancers: Design, synthesis and in vitro cell-based/cell-free evaluations” (2020)",
  "key": {"A549": {"test_system": "A549", "assay": "Antiproliferative activity against human A549 cells assessed as cell growth inhibition at 10 uM by SRB assay", "type": "functional, cell-based"}, "Lung cancer cell line": {"test_system": "Lung cancer cell line", "assay": "Antiproliferative activity against human lung cancer cells assessed as cell growth inhibition at 10 uM by SRB assay relative to control", "type": "functional"}, "NCI-H23": {"test_system": "NCI-H23", "assay": "Antiproliferative activity against human NCI-H23 cells assessed as cell growth inhibition at 10 uM by SRB assay", "type": "functional"}, "NCI-H460": {"test_system": "NCI-H460", "assay": "Antiproliferative activity against human NCI-H460 cells assessed as cell growth inhibition at 10 uM by SRB assay relative to control", "type": "functional"}, "HCC 2998": {"test_system": "HCC 2998", "assay": "Antiproliferative activity against human HCC 2998 cells assessed as cell growth inhibition at 10 uM by SRB assay", "type": "functional, cell-based"}, "Prostatic carcinoma cell": {"test_system": "Prostatic carcinoma cell", "assay": "Antiproliferative activity against human prostatic carcinoma cells assessed as cell growth inhibition at 10 uM by SRB assay relative to control", "type": "functional"}, "PC-3": {"test_system": "PC-3", "assay": "Antiproliferative activity against human PC-3 cells assessed as inhibition of cell growth at 10 uM by SRB assay relative to control", "type": "functional"}, "HT-29": {"test_system": "HT-29", "assay": "Antiproliferative activity against human HT-29 cells assessed as cell growth inhibition at 10 uM by SRB assay", "type": "functional, cell-based"}, "HCT-116": {"test_system": "HCT-116", "assay": "Antiproliferative activity against human HCT-116 cells assessed as cell growth inhibition at 10 uM by SRB assay", "type": "functional, cell-based"}, "KM12": {"test_system": "KM12", "assay": "Antiproliferative activity against human KM12 cells assessed as cell growth inhibition at 10 uM by SRB assay", "type": "functional, cell-based"}, "Ovarian cancer cell line": {"test_system": "Ovarian cancer cell line", "assay": "Antiproliferative activity against human ovarian cancer cells assessed as cell growth inhibition at 10 uM by SRB assay relative to control", "type": "functional"}, "Malme-3M": {"test_system": "Malme-3M", "assay": "Antiproliferative activity against human Malme-3M cells assessed as cell growth inhibition at 10 uM by SRB assay relative to control", "type": "functional"}, "HOP-62": {"test_system": "HOP-62", "assay": "Antiproliferative activity against human HOP-62 cells assessed as cell growth inhibition at 10 uM by SRB assay relative to control", "type": "functional"}, "UACC-62": {"test_system": "UACC-62", "assay": "Antiproliferative activity against human UACC-62 cells assessed as cell growth inhibition at 10 uM by SRB assay relative to control", "type": "functional"}, "COLO 205": {"test_system": "COLO 205", "assay": "Antiproliferative activity against human COLO 205 cells assessed as cell growth inhibition at 10 uM by SRB assay", "type": "functional, cell-based"}, "HCT-15": {"test_system": "HCT-15", "assay": "Antiproliferative activity against human HCT-15 cells assessed as cell growth inhibition at 10 uM by SRB assay", "type": "functional, cell-based"}, "RPMI-8226": {"test_system": "RPMI-8226", "assay": "Antiproliferative activity against human RPMI-8226 cells assessed as cell growth inhibition at 10 uM by SRB assay relative to control", "type": "functional"}, "OVCAR-4": {"test_system": "OVCAR-4", "assay": "Antiproliferative activity against human OVCAR-4 cells assessed as cell growth inhibition at 10 uM by SRB assay relative to control", "type": "functional"}, "SK-MEL-28": {"test_system": "SK-MEL-28", "assay": "Antiproliferative activity against human SK-MEL-28 cells assessed as cell growth inhibition at 10 uM by SRB assay relative to control", "type": "functional"}, "NCI-H226": {"test_system": "NCI-H226", "assay": "Antiproliferative activity against human NCI-H226 cells assessed as cell growth inhibition at 10 uM by SRB assay", "type": "functional"}, "OVCAR-8": {"test_system": "OVCAR-8", "assay": "Antiproliferative activity against human OVCAR-8 cells assessed as cell growth inhibition at 10 uM by SRB assay relative to control", "type": "functional"}, "SW-620": {"test_system": "SW-620", "assay": "Antiproliferative activity against human SW620 cells assessed as cell growth inhibition at 10 uM by SRB assay", "type": "functional, cell-based"}, "DU-145": {"test_system": "DU-145", "assay": "Antiproliferative activity against human DU-145 cells assessed as inhibition of cell growth at 10 uM by SRB assay relative to control", "type": "functional"}},
  "note": "Activity calls are given as the source filed them. The rule behind the calls is not given here.",
  "data": [
    {"smiles": "COc1cc2oc(-c3cccc(C(=O)Nc4ccc(C#N)cc4)c3)cc(=O)c2c(O)c1OC", "values": [
      {"measurement": "inhibition", "setting": "A549", "result": "Active"},
      {"measurement": "inhibition at 10 µM", "setting": "Lung cancer cell line", "result": "> 50", "unit": "%"},
      {"measurement": "inhibition", "setting": "NCI-H23", "result": "Active"},
      {"measurement": "inhibition at 10 µM", "setting": "NCI-H460", "result": 81.1, "unit": "%"},
      {"measurement": "inhibition", "setting": "HCC 2998", "result": "Active"},
      {"measurement": "inhibition at 10 µM", "setting": "Prostatic carcinoma cell", "result": "> 50", "unit": "%"},
      {"measurement": "inhibition at 10 µM", "setting": "PC-3", "result": 92.1, "unit": "%"},
      {"measurement": "inhibition", "setting": "HT-29", "result": "Active"},
      {"measurement": "inhibition", "setting": "HCT-116", "result": "Active"},
      {"measurement": "inhibition", "setting": "KM12", "result": "Active"},
      {"measurement": "inhibition at 10 µM", "setting": "Ovarian cancer cell line", "result": "> 50", "unit": "%"},
      {"measurement": "inhibition at 10 µM", "setting": "Malme-3M", "result": 52.3, "unit": "%"},
      {"measurement": "inhibition at 10 µM", "setting": "HOP-62", "result": 31.8, "unit": "%"},
      {"measurement": "inhibition at 10 µM", "setting": "UACC-62", "result": 50.5, "unit": "%"},
      {"measurement": "inhibition", "setting": "COLO 205", "result": "Active"},
      {"measurement": "inhibition", "setting": "HCT-15", "result": "Active"},
      {"measurement": "inhibition at 10 µM", "setting": "RPMI-8226", "result": 82.6, "unit": "%"},
      {"measurement": "inhibition at 10 µM", "setting": "OVCAR-4", "result": 88.3, "unit": "%"},
      {"measurement": "inhibition at 10 µM", "setting": "SK-MEL-28", "result": 67.2, "unit": "%"},
      {"measurement": "inhibition", "setting": "NCI-H226", "result": "Active"},
      {"measurement": "inhibition at 10 µM", "setting": "OVCAR-8", "result": 70.9, "unit": "%"},
      {"measurement": "inhibition", "setting": "SW-620", "result": "Active"},
      {"measurement": "inhibition at 10 µM", "setting": "DU-145", "result": 65.8, "unit": "%"}
    ]}
  ]
}
